We go through eight compounds from article PMC7910576, “Marine furanocembranoids-inspired macrocycles enabled by Pd-catalyzed unactivated C(sp^3)-H olefination mediated by donor/donor carbenes” (Nature Communications, 2021).

One data set has as its system IL-1β. Briefly: LPS-induced IL-1β production in RAW264.7 macrophages (ELISA). The class given is cell-based. To be noted: Mus musculus, LPS 5 μg/mL, 24 h. How it is done: (§1) RAW264.7 cell, a murine macrophage cell line, was purchased from American Type Culture Collection (ATCC, Manassas, VA, USA). Cells were grown in Dulbecco’s Modified Eagle Media (DMEM) containing 10% fetal bovine serum, 2 mM L-glutamine, 100 U/mL penicillin, and 100 μg/mL streptomycin and were maintained at 37 °C in a humidified incubator of 5% CO2.
(§2) RAW264.7 cells (1 × 10^5/well) were seeded into 96-well plates in triplicate and were treated with DMEM media only or 5 μg/mL of LPS or with indicated concentrations of compounds for 24 h. Supernatants were collected and then quantified with the mouse TNF-α, IL-6, and IL-1β ELISA kits following the manufacturer’s instructions.
The compound `Cc1oc2cc1C(=O)NCCCCCCCCCCCC(=O)N[C@@H](Cc1ccccc1)C(=O)Nc1ccc(cc1)C(C)(C)/C=C\2C(C)(C)C` [6a] returned an IC50 of 12.8 µM.
The same measure, in the same setting: the value for `Cc1oc2cc1C(=O)NCCCCCCCCCCCC(=O)N[C@@H](C)C(=O)Nc1ccc(cc1)C(C)(C)/C=C\2C(C)(C)C` [6b] was 3.4 µM; that for `Cc1oc2cc1C(=O)NCCCCCCCCCCCC(=O)N[C@@H](C(C)C)C(=O)Nc1ccc(cc1)C(C)(C)/C=C\2C(C)(C)C` [6c] was 4.38 µM.
As for `Cc1oc2cc1C(=O)NCCCCCCCCCCCC(=O)N1CCC[C@H]1C(=O)Nc1ccc(cc1)C(C)(C)/C=C\2C(C)(C)C` [6d], 17.6 µM corresponded to half-maximal inhibition (IC50).
In turn, `Cc1oc2cc1C(=O)NCCCCCCCCCCCC(=O)N[C@@H](C(C)C)C(=O)N[C@@H](Cc1ccccc1)C(=O)Nc1ccc(cc1)C(C)(C)/C=C\2C(C)(C)C` [6e] registered an IC50 of 3.05 µM.
Consider `CSCC[C@@H]1NC(=O)CCCCCCCCCCCNC(=O)c2cc(oc2C)/C(C(C)(C)C)=C\C(C)(C)c2ccc(cc2)NC(=O)[C@H](Cc2ccccc2)NC1=O` [6f], for which the IC50 was found to be 8.61 µM.
In turn, `Cc1oc2cc1C(=O)NCCCCCCCCCCCC(=O)Nc1ccc(cc1)C(C)(C)/C=C\2C(C)(C)C` [6g] came in with an IC50 of 0.59 µM.
Compound `Cc1oc2cc1C(=O)N[C@@H](C(C)C)C(=O)NCCCCCCCCCCCC(=O)Nc1ccc(cc1)C(C)(C)/C=C\2C(C)(C)C` [6h] had an IC50 of 0.0041 µM.

Another data set deals with TNF-α. Briefly: LPS-induced TNF-α production in RAW264.7 macrophages (ELISA). Type of data set: cell-based. The settings on record: Mus musculus, LPS 5 μg/mL, 24 h. As for the experimental part: as §1, §2
Consider `Cc1oc2cc1C(=O)NCCCCCCCCCCCC(=O)N[C@@H](Cc1ccccc1)C(=O)Nc1ccc(cc1)C(C)(C)/C=C\2C(C)(C)C` [6a], for which the IC50 is over 250 µM.
The compound `Cc1oc2cc1C(=O)NCCCCCCCCCCCC(=O)N[C@@H](C)C(=O)Nc1ccc(cc1)C(C)(C)/C=C\2C(C)(C)C` [6b] registered an IC50 of 2.15 µM.
Turning to `Cc1oc2cc1C(=O)NCCCCCCCCCCCC(=O)N[C@@H](C(C)C)C(=O)Nc1ccc(cc1)C(C)(C)/C=C\2C(C)(C)C` [6c], the IC50 is 11.5 µM.
With `Cc1oc2cc1C(=O)NCCCCCCCCCCCC(=O)N1CCC[C@H]1C(=O)Nc1ccc(cc1)C(C)(C)/C=C\2C(C)(C)C` [6d], half-maximal inhibition (IC50) required 107 µM.
As to `Cc1oc2cc1C(=O)NCCCCCCCCCCCC(=O)N[C@@H](C(C)C)C(=O)N[C@@H](Cc1ccccc1)C(=O)Nc1ccc(cc1)C(C)(C)/C=C\2C(C)(C)C` [6e], the IC50 is over 250 µM.
Same read-out and setting: the value for `CSCC[C@@H]1NC(=O)CCCCCCCCCCCNC(=O)c2cc(oc2C)/C(C(C)(C)C)=C\C(C)(C)c2ccc(cc2)NC(=O)[C@H](Cc2ccccc2)NC1=O` [6f] was 10 µM.
With `Cc1oc2cc1C(=O)NCCCCCCCCCCCC(=O)Nc1ccc(cc1)C(C)(C)/C=C\2C(C)(C)C` [6g], inhibition was half-maximal at 0.45 µM (IC50).
For the compound `Cc1oc2cc1C(=O)N[C@@H](C(C)C)C(=O)NCCCCCCCCCCCC(=O)Nc1ccc(cc1)C(C)(C)/C=C\2C(C)(C)C` [6h], 56.4 µM corresponded to half-maximal inhibition (IC50).

The test system of a further data set is IL-6. Kind of data set: LPS-induced IL-6 production in RAW264.7 macrophages (ELISA). The class given is cell-based, mouse. To be noted: Mus musculus; RAW264.7 macrophages, LPS 5 μg/mL, 24 h. As for the experimental part:
as §1, §2
In the case of `Cc1oc2cc1C(=O)NCCCCCCCCCCCC(=O)N[C@@H](Cc1ccccc1)C(=O)Nc1ccc(cc1)C(C)(C)/C=C\2C(C)(C)C` [6a], 53.6 µM corresponded to half-maximal inhibition (IC50).
The same measure, in the same setting: under `Cc1oc2cc1C(=O)NCCCCCCCCCCCC(=O)N[C@@H](C)C(=O)Nc1ccc(cc1)C(C)(C)/C=C\2C(C)(C)C` [6b] stands 7.28 µM; under `Cc1oc2cc1C(=O)NCCCCCCCCCCCC(=O)N[C@@H](C(C)C)C(=O)Nc1ccc(cc1)C(C)(C)/C=C\2C(C)(C)C` [6c], 10.5 µM.
Consider `Cc1oc2cc1C(=O)NCCCCCCCCCCCC(=O)N1CCC[C@H]1C(=O)Nc1ccc(cc1)C(C)(C)/C=C\2C(C)(C)C` [6d], for which the IC50 came to 196 µM.
Consider `Cc1oc2cc1C(=O)NCCCCCCCCCCCC(=O)N[C@@H](C(C)C)C(=O)N[C@@H](Cc1ccccc1)C(=O)Nc1ccc(cc1)C(C)(C)/C=C\2C(C)(C)C` [6e], for which half-maximal inhibition (IC50) required 80.8 µM.
As for `CSCC[C@@H]1NC(=O)CCCCCCCCCCCNC(=O)c2cc(oc2C)/C(C(C)(C)C)=C\C(C)(C)c2ccc(cc2)NC(=O)[C@H](Cc2ccccc2)NC1=O` [6f], half-maximal inhibition (IC50) required 29.5 µM.
On the same count and under the same terms, the value for `Cc1oc2cc1C(=O)NCCCCCCCCCCCC(=O)Nc1ccc(cc1)C(C)(C)/C=C\2C(C)(C)C` [6g] was 1.59 µM.
Turning to `Cc1oc2cc1C(=O)N[C@@H](C(C)C)C(=O)NCCCCCCCCCCCC(=O)Nc1ccc(cc1)C(C)(C)/C=C\2C(C)(C)C` [6h], the IC50 was 0.95 µM.

The same data set, now with this note: compared with Dexamethasone.
In the case of `Cc1oc2cc1C(=O)NCCCCCCCCCCCC(=O)Nc1ccc(cc1)C(C)(C)/C=C\2C(C)(C)C` [6g], the “potency of inhibitory activity on IL-6 relative to Dexamethasone” value is given as “approximately ten times more potent”.
On to `Cc1oc2cc1C(=O)N[C@@H](C(C)C)C(=O)NCCCCCCCCCCCC(=O)Nc1ccc(cc1)C(C)(C)/C=C\2C(C)(C)C` [6h], for which the “potency of inhibitory activity on IL-6 relative to Dexamethasone” value was “approximately ten times more potent”.

The next data set deals with RAW264.7 cells. Kind of data set: Cell viability assay (MTT) in RAW264.7 cells. Type of data set: cell-based, mouse. To be noted: at the indicated concentrations, compared to Dexamethasone. As for the experimental part: as §1
(§3) RAW264.7 cells (1 × 10^5/well) were seeded into 96-well plates in triplicate and were treated with DMEM media or indicated concentrations of compounds for 24 h. MTT solution was added to each well at a final concentration of 0.5 mg/ml and incubated for 4 h before the end of the culture. The quantity of formazan is measured at 570 nm with a microplate reader (Molecular Devices, Sunnyvale, CA, USA) and the cell viability was calculated.
With `Cc1oc2cc1C(=O)NCCCCCCCCCCCC(=O)Nc1ccc(cc1)C(C)(C)/C=C\2C(C)(C)C` [6g], the “cytotoxicity (in words)” value is “did not show obvious cytotoxicity”.
As to `Cc1oc2cc1C(=O)N[C@@H](C(C)C)C(=O)NCCCCCCCCCCCC(=O)Nc1ccc(cc1)C(C)(C)/C=C\2C(C)(C)C` [6h], the “cytotoxicity (in words)” value is reported as “did not show obvious cytotoxicity”.

System in a further data set: not listed separately
Briefly: Cell viability assay (MTT) in RAW264.7 cells. The class given is cell-based, mouse. The settings on record: mouse, RAW264.7 macrophage cells; RAW264.7 cells, 24 h, MTT; read-out: Cytotoxicity CC50. How it is done:
as §1, §3
As for `Cc1oc2cc1C(=O)NCCCCCCCCCCCC(=O)N[C@@H](Cc1ccccc1)C(=O)Nc1ccc(cc1)C(C)(C)/C=C\2C(C)(C)C` [6a], the CC50 at 24 h turned out to be 152 µM.
Regarding `Cc1oc2cc1C(=O)NCCCCCCCCCCCC(=O)N[C@@H](C)C(=O)Nc1ccc(cc1)C(C)(C)/C=C\2C(C)(C)C` [6b], the CC50 at 24 h is 39.7 µM.
For the compound `Cc1oc2cc1C(=O)NCCCCCCCCCCCC(=O)N[C@@H](C(C)C)C(=O)Nc1ccc(cc1)C(C)(C)/C=C\2C(C)(C)C` [6c], the CC50 at 24 h stood at 154 µM.
For `Cc1oc2cc1C(=O)NCCCCCCCCCCCC(=O)N1CCC[C@H]1C(=O)Nc1ccc(cc1)C(C)(C)/C=C\2C(C)(C)C` [6d], the CC50 at 24 h turned out to be 27.7 µM.
As to `Cc1oc2cc1C(=O)NCCCCCCCCCCCC(=O)N[C@@H](C(C)C)C(=O)N[C@@H](Cc1ccccc1)C(=O)Nc1ccc(cc1)C(C)(C)/C=C\2C(C)(C)C` [6e], the CC50 at 24 h is over 250 µM.
On to `CSCC[C@@H]1NC(=O)CCCCCCCCCCCNC(=O)c2cc(oc2C)/C(C(C)(C)C)=C\C(C)(C)c2ccc(cc2)NC(=O)[C@H](Cc2ccccc2)NC1=O` [6f], for which the CC50 at 24 h came to 214 µM.
Still for that read-out and setting: the value for `Cc1oc2cc1C(=O)NCCCCCCCCCCCC(=O)Nc1ccc(cc1)C(C)(C)/C=C\2C(C)(C)C` [6g] was over 250 µM; that for `Cc1oc2cc1C(=O)N[C@@H](C(C)C)C(=O)NCCCCCCCCCCCC(=O)Nc1ccc(cc1)C(C)(C)/C=C\2C(C)(C)C` [6h] was 56.4 µM.

In the next data set the test system is NF-κB signaling pathway. Kind of data set: Western blotting of LPS-induced NF-κB signaling pathway activation in RAW264.7 cells. The class given is cell-based, mouse. The settings on record: Western blot. As for the experimental part:
as §1
RAW264.7 cells (6 × 10^5/well) were seeded into 24-well plates and treated with DMEM media only or 5 μg/mL of LPS or with indicated concentrations of compounds for 24 h. Cells were lysed in sodium dodecyl sulfate (SDS) sample buffer containing protease inhibitor cocktail (Roche Life Science, Mannheim, Germany). The resulted proteins were resolved by SDS-polyacrylamide gel electrophoresis and then subjected to the following antibodies: anti-mouse IKK-α, anti-mouse phospho-IKK-α, anti-mouse IκB-α, anti-mouse NF-κB p65, anti-mouse phospho-NF-κB p65 antibodies (Cell Signaling Technology, Beverly, MA), and HRP-conjugated mouse anti-GAPDH (Kangcheng, Shanghai, China). Signals were detected with an HRP-conjugated anti-rabbit IgG (Bio-Rad, Richmond, CA, USA) using an ECL system (Amersham Biosciences, Buckinghamshire, UK). The uncropped and unprocessed scans of indicated blots were supplied as Supplementary Figure 99 in the Supplementary Information.
In the case of `Cc1oc2cc1C(=O)NCCCCCCCCCCCC(=O)Nc1ccc(cc1)C(C)(C)/C=C\2C(C)(C)C` [6g], the “degradation of IκB-α” value was “abrogate”, the “phosphorylation of IKK-α” value was “abrogate” and the “phosphorylation of NF-κB” value is recorded as “suppressed by 6g in a concentration-dependent manner”.
